The source of these data is patent EP1479385B1, “Use of cyclooxygenase-2 inhibitors in the treatment and prevention of neoplasia” (G.D. Searle LLC, priority 1996, dated 1998).

One assay deals with Lewis lung carcinomas. As to the kind of experiment: Murine Lewis lung carcinoma model (tumor volume). In kind it is in vivo, C57BL/6 mice. To be noted: day 32 after cancer cell injection, vs control group. The procedure: Lewis lung carcinomas were implanted sub-cutaneously into the foot pad of male C57BL/6 mice. The mice were subsequently treated with 4-[5-(4-chlorophenyl)-3-(difluoromethyl)-1H-pyrazol-1-yl)benzenesulfonamide. The drug was supplied in the drinking water at 6 mg/kg/day. […] The drug was supplied in the drinking water at the maximum tolerated dose of […]. A total of 10 mice/compound were tested. Tumor volume was determined twice a week using a plethysmometer. The % inhibition value is calculated by calculating the difference in tumor size compared with the control group.

The subject of the next assay is PC-3 cells. Description: Human prostate cancer PC-3 tumors in nude mice. In kind it is in vivo. To be noted: 20 mg/kg/day in water. The procedure:
(§1) Two human prostate cancer cell lines (PC-3 and LNCaP) were obtained (ATCC) to determine the efficacy of cyclooxygenase-2 inhibitors to inhibit tumor growth in a therapeutic model. In addition, the LNCaP cell line secretes prostate serum antigen (PSA) when grown in nude mice.
PC-3 cells (10^6 cells/0.2 ml of 30% matrigel) in RPMI 1640 medium was injected on the back of nude mice. […] After 45 days, PGE2 and TXB2 were measured.

The next assay has as its system LNCaP. Description: Human prostate cancer LNCaP tumors in nude mice. In kind it is in vivo. To be noted: dose equivalent to 6 mg/kg/day in the drinking water.
Description: as §1
PSA level was reduced to approximately 50% as judged by western blotting.

Assay [1] relates to Lewis Lung carcinoma cells. Description: Combination therapy in Lewis Lung carcinoma model (tumor volume). In kind it is in vivo, C57BL/6 mice. To be noted: CTX 50 mg/kg injected on days 5, 7 and 9 after implantation. The procedure: Lewis Lung carcinoma cells (2.5 x 10^6 cells) prepared from a brei carried in C57BL/6 mice were injected sub-cutaneously into the hind legs of mice.

SMILES strings stand for the structures.

Consider `COc1ccc2c(c1)c(CC(=O)O)c(C)n2C(=O)c1ccc(Cl)cc1` [Indomethacin, indomethacin, reference compound], for which the “Tumor Volume (Day 32) % Inhibition” value with Lewis lung carcinomas (2 mg/kg/day (maximum tolerated dose) in the drinking water) is listed as 62.90%.
Compound `NS(=O)(=O)c1ccc(-n2nc(C(F)F)cc2-c2ccc(Cl)cc2)cc1` [COX-2 inhibitor, 4-[5-(4-chlorophenyl)-3-(difluoromethyl)-1H-pyrazol-1-yl]benzenesulfonamide] had an inhibited tumor growth with PC-3 cells (administered from day 28, after 45 days) of 55%. Besides, in the assay with PC-3 cells (measured after 45 days), the PGE2 levels reduced is 80-90% and the TXB2 levels reduced is reported as 80-90%. In addition, the “inhibited the growth of the tumor” value with LNCaP (day 58) is on record as 55%. Further, the “PSA level was reduced to” value with LNCaP (judged by western blotting) is on record as “approximately 50%”. Also, the “Tumor Volume (Day 32) % Inhibition” value in the assay on Lewis lung carcinomas (6 mg/kg/day in the drinking water) turned out to be 70.86%.
For `O=P1(N(CCCl)CCCl)NCCCO1` (centres unmarked) [CTX, Cyclophosphamide], the “Tumor Volume (Day 22) % Inhibition” value in assay [1] was 57%.
